Format in all cases: cell-based, human
For data set [1], the system named is p53 protein. The experiment in a line: p53 expression in Colo320 cells expressing siRNA-NRP-2 (flow cytometry, Western blotting). The settings on record: Colo320^siRNA-NRP-2 versus Colo320^siRNA-ctrl. From the text:
FIG. 7 represents the results obtained by flow cytometry for the HT29-ctrl (panel A), HT29-NRP-2 (panel B), Colo320^siRNA-ctrl (panel C) and Colo320^siRNA-NRP-2 (panel D) cells labelled with an anti-p53 antibody. The curves in black lines represent the results of the labelling with a control antibody, and the curves in grey lines represent the results of the labelling with the anti-p53 antibody. The number of events (the number of cells) is indicated on the y-axis, the fluorescence intensity (corresponding to the labelling of the cells with the anti-p53 antibody) is represented on the x-axis.
The protein extracts of the HT29-ctrl, HT29-NRP-2, Colo320^siRNA-ctrl and Colo320^siRNA-NRP-2 lines were also analysed by Western blotting using an anti-p53 antibody. After lysis of the cell lines, migration of the protein pellets obtained on a 10% polyacrylamide gel (10 μg of protein per well, standardized relative to the immunoblotting of actin), and then transfer onto a PVDF membrane, the PVDF membrane was incubated overnight with the p53 primary antibody (BD Biosciences, mouse anti-human p53) diluted to 1/500. The membranes, after washing in TBS/0.1% Tween20, were incubated for 1 hour with an anti-mouse HRP secondary antibody diluted to 1/12 500. The results are represented in FIG. 8.
(In general: A flow cytometer gives signals particle by particle.)

Data set [2] has as its system NRP-2 protein. The data set is described as follows: NRP-2 expression after siRNA transfection (flow cytometry, C9 antibody). The settings on record: Colo320 cells transfected with pFiv H1/U6puro siRNA-NRP-2, from D7. The method, then:
The Colo320 line naturally expressing neuropilin-2 at its membrane surface was transfected with the plasmid pFiv H1/U6puro siRNA-NRP-2 using the Effectene® kit, Qiagen). In parallel, Colo320 cells were transfected with a control siRNA (siRNA-ctrl) provided with the pFiv H1/U6puro SiRNA expression vector kit (System Biosciences). The Colo320^siRNA-NRP-2 and Colo320^siRNA-ctrl transfected cells were then selected at D2 with 2 μg/ml of puromycin. The efficiency of the transfection was evaluated from D7 onwards by labelling with a murine anti-human NRP-2 IgG antibody (Clone C9, Santa Cruz Biotechnology) by flow cytometry: the results obtained are represented in FIG. 3.
For each of the panels of FIG. 3, the number of events (the number of cells) is indicated on the y-axis, the fluorescence intensity (corresponding to the label of the cells with the anti-NRP-2 antibody C9) is represented on the x-axis. The distribution curves in black lines represent the results obtained after labelling with a control antibody, the distribution curves in grey lines represent the results obtained after labelling with the C9 antibody.

Data set [3] deals with Colo320 cells. The experiment in a line: MTT proliferation assay in the presence of siRNA-NRP-2. As to conditions: Colo320^siRNA-NRP-2 versus Colo320^siRNA-ctrl; 24, 48 and 72 hours. The method, then: The MTT proliferation assay is based on the reduction of 3-(4,5-dimethylthiazol-2-yl)-2,5-diphenyltetrazolium bromide), by the mitochondrial succinate dehydrogenase of active live cells, to give formazan. The coloration intensity (OD) induced by this reaction is proportional to the number of live cells present during the assay, and to the metabolic activity thereof.
4000 HT29ctrl, HT29-NRP-2, Colo320^siRNA-ctrl or Colo320^siRNA-NRP-2 cells were seeded into a 96-well Maxisorp plate, in 100 μl of DMEM medium containing 10% of inactivated FCS. The assay was carried out in triplicate. At 24, 48 and 72 hours, respectively, 10 μl of MTT at 5 mg/ml were added to each well. After 2 hours of incubation at 37° C., 5% CO2, 200 μl of DMSO were added to each well after shaking, and the OD was read at 570 nm using a spectrophotometer. The results of these experiments are represented in FIG. 4.
FIGS. 4.A and 4.B are histograms representing the results obtained in the proliferation assay carried out respectively with the HT29ctrl and HT29-NRP-2 cells and with the Colo320^siRNA-ctrl and Colo320^siRNA-NRP-2 cells. The coloration intensity (the optical density “OD”) corresponding to the production of formazan by the cells is indicated on the y-axis, and the times at which the viability tests were carried out are indicated on the x-axis. […]
(Tetrazolium dyes change colour on reduction, which living cells bring about.)

As to “siRNA-NRP-2: double-stranded siRNA directed against the NRP-2 transcripts, sense SEQ ID No. 31, antisense SEQ ID No. 32, expressed from plasmid (sense GGCUGGAAGUCAGCACUAAUUU; antisense AUUAGUGCUGACUUCCAGCCUU)”, in data set [1], the “p53 expression (Western blotting)” value was “strongly expressed” and the “p53 expression (flow cytometry)” value was “restoration of p53 expression”. Besides, in data set [2], the “expression of the NRP-2 protein” value is on record as “efficiently inhibited”. The “proliferation and survival (OD at 570 nm)” value in data set [3] was “OD decreases”.

Source of the values: patent US8722043B2, “Induction of p53 expression by neutralization of neuropilin-2 for the treatment of cancers” (Diaclone, priority 2008, dated 2014).
